Test results as given in patent US20240174598A1, “COMPOUNDS FOR THE TREATMENT OF DISORDERS AND SALTS AND POLYMORPHS THEREOF” (OccuRx Pty Ltd, priority 2021, published 2024).
Structures can show the parent of a compound that is named as a salt.

How the values were obtained:
[1] = Dynamic vapor sorption (DVS) analysis; format: physicochemical; settings: for stability to humidity: over a wide range of humidity
Description: Approximately, 10-20 mg of sample was placed into a mesh vapor sorption balance pan and loaded into a DVS Intrinsic dynamic vapor sorption balance by Surface Measurement Systems. The sample was subjected to a ramping profile from 40-90% relative humidity (RH) at 10% increments, maintaining the sample at each step until a stable weight had been achieved (dm/dt 0.004%, minimum step length 30 minutes, maximum step length 500 minutes) at 25° C. After completion of the sorption cycle, the sample was dried using the same procedure to 0% RH and then a second sorption cycle back to 40% RH. Two cycles were performed. The weight change during the sorption/desorption cycles were plotted, allowing for the hygroscopic nature of the sample to be determined. XRPD analysis was then carried out on any solid retained.

[2] = Intrinsic dissolution studies (disc, Wood's die); format: physicochemical
Description: Discs for the intrinsic dissolution evaluation were prepared by weighing approximately 175 mg of each batch and compressing with a small hydraulic press in a 13 mm Wood's die for 3 minutes at a force of approximately 3000 lbs. The surface of each disc was examined carefully to ensure that it was uniform, smooth and free from loose powder.
The dissolution experiments were conducted by attaching the Wood's die containing the disc, to the matching shafts on an Erweka DT6 dissolution apparatus. The discs were lowered into the media (500 mL at 37° C.) and immediately rotated at 100 rpm. Duplicate samples of the media (0.2 mL) were removed prior to immersion of the disc and then at 2, 5, 10, 15, 20, 25, 30, 60 and 90 minutes after the experiment was initiated. Sampling was discontinued if substantial dissolution was visible or if the disc disintegrated in the media.
At the end of each experiment, the discs were removed from the media and examined to ensure that the surface of the discs remained uniform and to qualitatively assess the extent of dissolution over the course of the experiment. Media samples were centrifuged (10000 rpm×3 min) and a small aliquot (50 μL) removed, 5-fold diluted with 50% aqueous acetonitrile prior to HPLC analysis.

water uptake corresponding to the mass increase ([1]; at 90% RH)	mass increase by dynamic vapor sorption ([1]; at 90% Relative Humidity (RH))	stability to humidity [1]	dissolution profile compared to the free acid of the compound of Formula (I) ([2]; FaSSIF media, 37° C. (FIG. 12))	dissolution profile compared to the free acid of the compound of Formula (I) ([2]; PBS media, 37° C. (FIG. 13))	hygroscopicity by dynamic vapor sorption/desorption analysis [1]	water uptake by dynamic vapor sorption ([1]; at 90% RH)	Structure (SMILES)
1.3 equiv. of water	4.2 wt. %	stable over a wide range of humidity	superior	superior			COc1cc(/C=C/C(=O)Nc2ccccc2C(=O)O)ccc1OC(F)F [Crystalline Salt A]
		stable over a wide range of humidity	superior	equivalent, if not better	non-hygroscopic	negligible water uptake	COc1cc(/C=C/C(=O)Nc2ccccc2C(=O)O)ccc1OC(F)F [Crystalline Salt B]
